Measured values from article PMC6017357, “In Vitro Inhibitory Effects of Synthetic Cannabinoid EAM-2201 on Cytochrome P450 and UDP-Glucuronosyltransferase Enzyme Activities in Human Liver Microsomes” (Molecules : A Journal of Synthetic Chemistry and Natural …, 2018).

Target: T1, UGT1A6 (Homo sapiens, UniProt P19224)
T1 construct: ultrapooled human liver microsomes (0.2 mg/mL), 5 mM UDPGA; from tissue; host or cells: ultrapooled human liver microsomes
T1 sequence (P19224 27-532): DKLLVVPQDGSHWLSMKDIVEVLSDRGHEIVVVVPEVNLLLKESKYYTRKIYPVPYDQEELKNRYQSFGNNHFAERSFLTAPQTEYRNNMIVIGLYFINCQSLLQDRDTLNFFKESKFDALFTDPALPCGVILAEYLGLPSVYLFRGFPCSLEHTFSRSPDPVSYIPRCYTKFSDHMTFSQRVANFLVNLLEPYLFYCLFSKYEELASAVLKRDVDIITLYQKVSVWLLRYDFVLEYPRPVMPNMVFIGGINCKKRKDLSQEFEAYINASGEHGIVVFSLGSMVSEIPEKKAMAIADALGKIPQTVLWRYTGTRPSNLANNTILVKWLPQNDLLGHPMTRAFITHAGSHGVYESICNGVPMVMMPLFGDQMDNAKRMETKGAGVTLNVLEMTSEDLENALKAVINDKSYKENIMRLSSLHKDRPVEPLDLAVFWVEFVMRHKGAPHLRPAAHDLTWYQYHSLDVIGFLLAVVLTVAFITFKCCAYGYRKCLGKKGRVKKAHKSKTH
Test: UGT1A6-catalyzed N-acetylserotonin glucuronidation in human liver microsomes
Format: in vitro ADME
Conditions: at 50 µM
Experimental: The inhibitory effects of EAM-2201 on UGT1A1, UGT1A3, UGT1A4, UGT1A6, UGT1A9 and UGT2B7 were evaluated using LC-MS/MS and the cocktail of UGT substrates as previously described. Each incubation mixture was prepared in a final volume of 100 µL as follows: ultrapooled human liver microsomes (0.2 mg/mL), 5 mM UDPGA, 10 mM magnesium chloride, alamethicin (25 µg/mL), 50 mM Tris buffer (pH 7.4), various concentrations of EAM-2201 in DMSO (final concentrations of 1–50 µM, 0.5% DMSO) and the UGT enzyme-specific substrates of two cocktail sets (set A: 0.5 µM SN-38, 2 µM chenodeoxycholic acid and 0.5 µM trifluoperazine; set B: 1 µM N-acetylserotonin, 0.2 µM mycophenolic acid and 1 µM naloxone, acetonitrile content, 0.5%). […] Supernatant from sets A and B (50 µL of each) was mixed and aliquots (5 µL) were analyzed by LC-MS/MS. […]
The metabolites formed from the six UGT cocktail substrates were simultaneously measured using LC-MS/MS [41]. […] Each metabolite was quantified via SRM in the negative ion mode: chenodeoxycholic acid 24-acyl-β-glucuronide, 567.2 > 391.0; mycophenolic acid glucuronide, 495.2 > 318.9; and propofol glucuronide (IS), 353.3 > 177.1; and in the positive ion mode: SN-38 glucuronide, 569.0 > 393.0; trifluoperazine glucuronide, 584.2 > 408.1; N-acetylserotonin-β-D-glucuronide, 395.2 > 219.0; naloxone 3-β-D-glucuronide, 504.0 > 310.0; and meloxicam (IS), 352.0 > 115.1. […]

CCc1ccc(C(=O)c2cn(CCCCCF)c3ccccc23)c2ccccc12 [EAM-2201, (4-ethyl-1-naphthalenyl)[1-(5-fluoropentyl)-1H-indol-3-yl]-methanone]
inhibition of UGT1A6-catalyzed N-acetylserotonin glucuronidation: negligibly inhibited
